Data on 1 molecule can be found in paper PMC10816272, “Comparative Structure-Based Virtual Screening Utilizing Optimized AlphaFold Model Identifies Selective HDAC11 Inhibitor” (International Journal of Molecular Sciences, 2024).

Structures are written as SMILES. pIC50: −log10 of the molar value.

In the assay the target is T1, HDAC11 (Homo sapiens, UniProt Q96DB2).
T1 construct: full-length human
T1 sequence (Q96DB2 1-347): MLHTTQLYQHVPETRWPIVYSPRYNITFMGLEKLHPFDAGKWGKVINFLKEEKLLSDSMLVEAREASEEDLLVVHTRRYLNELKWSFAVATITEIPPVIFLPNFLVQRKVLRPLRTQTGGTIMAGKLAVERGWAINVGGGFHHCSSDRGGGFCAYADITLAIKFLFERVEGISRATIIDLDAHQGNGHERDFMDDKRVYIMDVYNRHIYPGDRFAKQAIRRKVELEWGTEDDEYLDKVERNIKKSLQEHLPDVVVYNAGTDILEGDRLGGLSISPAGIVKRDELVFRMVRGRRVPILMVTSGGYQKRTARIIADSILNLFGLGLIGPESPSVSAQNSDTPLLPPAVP
Briefly: biochemical. Also on record: continuous fluorescence deacylase assay with fatty acid-acylated TNFα-derived peptide substrate. On the procedure:
In the case of HDAC11, the full-length human was expressed and purified as described in previous work. A fluorescence-based HDAC11 assay was used. The fluorescence measurements were performed using a PerkinElmer Envision 2104 multilabel plate reader (Waltham, MA, USA) at λex = 320 nm and λem = 430 nm. The reaction mixture consisted of HDAC11 and the fatty acid-acylated peptide substrate derived from TNFα in a reaction buffer—comprising 50 mM HEPES, 2 mg/mL BSA, and 70 µM TCEP—at pH 7.4, which was adjusted with NaOH (total volume 40 μL). The reactions were incubated in black 384-well plates for 30 min (scan every 30 s) at room temperature, and the increase in relative fluorescence reflecting the product formation was monitored. Positive (HDAC11, substrate, DMSO, and buffer) and negative controls (substrate, DMSO, and vuffer) were included in every measurement.

The term pIC50 denotes the IC50 on a negative log10 scale, so that one unit is a factor of ten. A low value points to a large IC50. In the case of `Nc1ccccc1NC(=O)c1ccc(CNC(=O)OCc2cccnc2)cc1` [Entinostat], the pIC50 is below 4.70.
